# From patent publication US5534522A, “(R)-(Z)-1-azabicyclo [2.2.1] heptan-3-one,O-[3-(3-methoxyphenyl)-2-propynyl] oxime maleate as a pharmaceutical agent” (Warner-Lambert Company, priority 1995, dated 1996)
# Where a name gives a salt, the structure may show the parent alone. Read-outs that look alike come from different tables or passages of the source.
# Assays:
# [1] = Evaluation of acid addition salts (ease of formation and crystallinity); assay type: physicochemical; conditions: for Overall Salt Rating: based on ease of formation and crystallinity, salt of 1a (free base treated with acid); for isomer formation on recrystallization (words): EtOAc in Table III
# Description: Many counter-ions were evaluated for salt-forming properties. The data presented in Table III answer the following questions: (1) did a solid salt precipitate from ether when free base 1a was treated with each acid?; (2) following collection of the salt by either filtration or evaporation of the ether, what solvents were used to crystallize the salt, and was a crystalline salt obtained from each solvent?; (3) melting point information; and (4) overall rating of each salt, based on considerations of ease of formation and crystallinity.
# [2] = molecular target: rat cerebral cortex muscarinic receptors; test: Muscarinic receptor binding, CMD (cis-methyldioxolane) agonist radioligand; conditions: for IC50: Table I
# [3] = molecular target: rat cerebral cortex muscarinic receptors; conditions: Table I; read-out: QNB Binding IC50
# [4] = Stability of crystalline salts of 1a under accelerated stability conditions; assay type: physicochemical
# Source text: Maleate and benzoate salts were recrystallized from ethyl acetate and t-butyl methyl ether, respectively. Xenon exposure with the Atlas SunChex set for 0.4±0.1 watts/m^2. Fluorescent exposure with 1000-±100-ft candles.
# [5] = Aqueous solubility of crystalline salts of 1a; assay type: physicochemical; conditions: for solubility: water, room temp.
# [6] = tested on: rat cerebral cortex muscarinic receptors; conditions: earlier publications, cited from earlier work
# [7] = tested on: m1-subtype muscarinic receptors; conditions: cited from earlier work
# [8] = Refrigerated storage stability of free base; assay type: physicochemical; conditions: refrigerated at -4° C., up to several days
# [9] = Hygroscopicity of salts of Compound 1a; assay type: physicochemical; conditions: for Hygroscopicity (% wt increase): RT, 81% RH for 16 days, crimped DSC pans; for moisture uptake / hygroscopicity in words: salts of Table IV
# [10] = tested on: hippocampally deficient mice; assay type: in vivo, mouse
# Source text: This test measures the ability of a compound to decrease the amount of time needed by the mice to find a hidden platform in the water pool.
# The graph represents two sets of experiments, each one with its own control group.
# [11] = Xenon, 26 hours, 0.4±0.1 watts/m^2
# [12] = 1a versus isomer 1b, Tables II and III of Jaen reference
smiles,measurement,setting,value
CCCC(=O)O.COc1cccc(C#CCON=C2CN3CCC2C3)c1 (centres unmarked),Overall Salt Rating,[1],Low
COc1cccc(C#CCO/N=C2/CN3CCC2C3)c1 (centres unmarked) [(1c + 1d)],IC50,[2],0.15 µM
same,IC50,[3],14.8 µM
COc1cccc(C#CCO/N=C2\CN3CC[C@@H]2C3)c1 [Acetate],Overall Salt Rating,[1],Low
COc1cccc(C#CCO/N=C2\CN3CC[C@@H]2C3)c1 [Benzene Sulfonae Sulphonate],Overall Salt Rating,[1],Low
COc1cccc(C#CCO/N=C2\CN3CC[C@@H]2C3)c1 [Benzoate],Overall Salt Rating,[1],High
same,stability in words,[4]; 25° C./60% RH and 30° C./60% RH,stable
same,Stability: presence of 1c,"[4]; 30° C./60% RH, 2 weeks",.largecircle.
same,Stability to light: presence of 1c,[4]; [11],E (presence of 2%-4% 1c)
same,solubility,[5],6 mg/mL
COc1cccc(C#CCON=C2CN3CCC2C3)c1 (centres unmarked) [Compound 1],affinity to rat cerebral cortex muscarinic receptors,[6]; rat cerebral cortex,high affinity
same,ability to displace agonist radioligand (cis-methyldioxolane) at lower concentrations than those required to displace antagonist radioligand (quinuclidinyl benzilate),[6]; ratio QNB/CMD,246 times
same,selective stimulation of m1-subtype muscarinic receptors,"[7]; versus other non-m1 muscarinic receptors, earlier publications",selectively stimulate m1-subtype muscarinic receptors without significant stimulation of other non-m1 muscarinic receptors
"COc1cccc(C#CCO/N=C2\CN3CC[C@@H]2C3)c1 [Compound 1a, [R-(Z)]-1-azabicyclo [2.2.1]heptan-3-one, O-[3-(3-methoxyphenyl)-2-propynyl]oxime]",potency and efficacy as a muscarinic agonist (ratio of QNB to CMD binding),[2]; 1a versus mixture of 1c/1d,more potent and more efficacious as a muscarinic agonist
same,IC50,[2],0.025 µM
same,IC50,[3],5.3 µM
same,decomposition or isomerization to 1c on storage,[8],without noticeable decomposition or isomerization to produce 1c
same,m1 potency,[7]; [12],greater m1 potency than isomer 1b
same,m1 receptor subtype selectivity,[7]; [12],greater m1 receptor subtype selectivity
COc1cccc(C#CCO/N=C2\CN3CC[C@H]2C3)c1 [Compound 1b],muscarinic agonist activity,"[7]; isomer 1b, could be due to small amounts of 1a",small amount of activity
COc1cccc(C#CCO/N=C2\CN3CC[C@@H]2C3)c1 [Fumarate (0.5 epui)],Overall Salt Rating,[1],Medium
COc1cccc(C#CCO/N=C2\CN3CC[C@@H]2C3)c1 [Fumarate (1 equi)],Overall Salt Rating,[1],Low
COc1cccc(C#CCO/N=C2\CN3CC[C@@H]2C3)c1 [Hydrobromide],Overall Salt Rating,[1],Low
same,hygroscopicity of precipitated salt,[1]; precipitation from Et2O,very hygroscopic
COc1cccc(C#CCO/N=C2\CN3CC[C@@H]2C3)c1 [Hydrochloride],Overall Salt Rating,[1],High
same,isomer formation on recrystallization (words),[1],E-Isomer Formation
same,isomer formation on recrystallization (words),[1]; listed as hydrochloride,difficult to recrystallize without converting 1a to 1c
same,Hygroscopicity (% wt increase),[9],27.77 ± 0.40 % wt
same,moisture uptake / hygroscopicity in words,[9]; listed as HCl salt,took up water most rapidly and to the greatest extent
same,moisture uptake / hygroscopicity in words,[9]; listed as hydrochloride salt,extremely hygroscopic
COc1cccc(C#CCO/N=C2\CN3CC[C@@H]2C3)c1 [L(+)-Lactate],Overall Salt Rating,[1],Low
COc1cccc(C#CCO/N=C2\CN3CC[C@@H]2C3)c1 [Malate],Overall Salt Rating,[1],Low
"COc1cccc(C#CCO/N=C2\CN3CC[C@@H]2C3)c1 [Maleate, (R)-(Z)-1-azabicyclo[2.2.1]heptan-3-one,O-[3-(3-methoxyphenyl)-2-propynyl]oxime, (Z)-butenedioic acid, [1:1 salt]]",Hygroscopicity (% wt increase),[9],0.32 ± 0.02 % wt
same,moisture uptake / hygroscopicity in words,[9],the least
same,Stability to light: presence of 1c,"[4]; Fluorescence, 5.5 months, 1000-±100-ft candles",.largecircle.
same,Stability to light: presence of 1c,[4]; [11],.largecircle.
same,solubility in water relative to 1a benzoate,[5]; 1a maleate versus 1a benzoate,about 15 times
same,solubility,[5],89 mg/mL
same,latency improvement,"[10]; 1 mg/kg, separate set of experiments (maleate)",about 20 seconds
same,biological activity compared to other salts,[10]; water maze,no loss of biological activity
COc1cccc(C#CCO/N=C2\CN3CC[C@@H]2C3)c1 [Oxalate],Hygroscopicity (% wt increase),[9],6.38 ± 1.40 % wt
same,moisture uptake / hygroscopicity in words,[9]; listed as oxalate salt,less hygroscopic than the hydrochloride
same,reduction of time required to find the platform,"[10]; 1 mg/kg, first set of experiments (oxalate)",about 18 seconds
COc1cccc(C#CCO/N=C2\CN3CC[C@@H]2C3)c1 [Stearate],Overall Salt Rating,[1],Low
COc1cccc(C#CCO/N=C2\CN3CC[C@@H]2C3)c1 [Succinate],Overall Salt Rating,[1],Low
COc1cccc(C#CCO/N=C2\CN3CC[C@@H]2C3)c1 [Tartrate (D)-(-) (0.5 equi)],Overall Salt Rating,[1],Low
COc1cccc(C#CCO/N=C2\CN3CC[C@@H]2C3)c1 [Tartrate (D)-(-) (1 equi)],Overall Salt Rating,[1],Low
COc1cccc(C#CCO/N=C2\CN3CC[C@@H]2C3)c1 [Tartrate (L)-(+) (0.5 equi)],Overall Salt Rating,[1],Low
COc1cccc(C#CCO/N=C2\CN3CC[C@@H]2C3)c1 [Tartrate (L)-(+) (1 equi)],Overall Salt Rating,[1],Low
COc1cccc(C#CCO/N=C2\CN3CC[C@@H]2C3)c1 [ether-precipitated product],physical state under accelerated stability condition,"[4]; 2 weeks, 40° C./75% RH",deliquescent
COc1cccc(C#CCO/N=C2\CN3CC[C@@H]2C3)c1 [ethyl acetate recrystallized maleate salt],stability compared with ether-precipitated product,[4]; ethyl acetate recrystallized versus ether-precipitated,more stable
"Nc1c2c(nc3ccccc13)CCCC2 [tacrine, reference compound]","latency improvement, tacrine control group",[10]; tacrine in the maleate set of experiments,24 s
same,"improvement of time to find the platform, positive control",[10]; tacrine in the oxalate set of experiments,~27 s
